One molecule from US11850266B2, “Cardiomyocytes and compositions and methods for producing the same” (President and Fellows of Harvard College, priority 2019, dated 2023) can be followed below.

What all share (format): cell-based, human
In experiment [1] the test system is iPSC-derived cardiomyocytes. Description: Imaging quantification of proliferating cardiomyocytes (Ki67, phospho-histone H3). The note with it: versus control, non-dissociated cells, FIG. 8. An excerpt: Cardiomyocytes were differentiated in 12 well plates then fixed and stained in the original plates to minimize potential for selection of cells that survive dissociation. Cells were stained with Ki67/TNNT2/DAPI or phospho-H3/TNNT2/DAPI as described in Immunostaining methods. Images were acquired with a fluorescent microscope. Monolayer regions containing TNNT2+ cells were randomly selected from 5 fields of view in the plate with a 10× objective. The particle analysis feature of ImageJ was used to quantify the number of cells per field of view that were positive for DAPI, Ki67, or pH3. To control for variability across samples, a signal threshold of <500 was set DAPI and pH3 (488 nm) channels and a signal threshold of <600 was set for Ki67 ([…]). Particle sizes between 10-1000 pixels^2 were included in the analysis. The percentage of Ki67+ cells or pH3+ cells out of the total number of cells marked by DAPI and TNNT2 was quantified. A chi-squared test was used to evaluate for statistical significance.

The test system of experiment [2] is iPSC-derived cardiomyocytes. Description: Flow cytometry (TNNT2+ purity, MFI of TNNT2 and Kir2.1) and cell counts. As for the experimental part: To prepare for differentiation, iPSCs were plated at a density between 20,000 to 80,000 cells (depending on the cell line) per well of a 12-well plate at four days prior to onset of differentiation. Cells were differentiated according to the protocol previously described by Lian et al. with some modifications (FIG. 1A) (1). Basal media was changed from StemFlex to RPMI/B27 on day 0 of differentiation. The GSK3 inhibitor, CHIR99021 (6 μM), was added for 48 hours from day 0 to day 2 of differentiation when cells were approximately 70-80% confluent. The Wnt antagonist IWP4 (5 μM) was added from days 2 to 4 of differentiation. Insulin (10 μg/ml) was added to the media starting on day 7 of differentiation, and media was changed every 2-3 days. In general, higher purity (TNNT2+) cardiomyocytes were observed when beating initiated prior to day 10 of differentiation, therefore only batches with onset of beating between days 7-10 of differentiation were included in this study. Beating cardiomyocytes were treated with Torin1 (200 nM, unless otherwise noted) or vehicle (0.02% dimethylsulfoxide (DMSO)) beginning at ˜2 days after onset of beating for 7 days (media changed with fresh Torin1 or DMSO every 2-3 days), unless otherwise noted. After Torin1 treatment, media was switched back to RPMI/B27/insulin and maintained with media change every 2-3 days until endpoint assay. In a few assays, fatty acids were added in the form of chemically defined lipids (Gibco) diluted 1:1000 simultaneous with Torin1 treatment. In some other assays, fetal bovine serum (10% FBS) was added to cells after completion of Torin treatment for 2-4 days.
Cells were dissociated and 5×10^5 to 1×10^6 cells were used per condition. For cell cycle analysis, 5×10^5 cells per condition were fixed in 70% cold ethanol for at least 2 hours to overnight at −20 degrees C. Cells were stained first with AlexaFluor 647-TNNT2 in Permeabilization Buffer (Thermo) then with Hoechst 33342 (2 μg/ml) and pyronin Y (4 μg/ml) for 20 minutes to distinguish between cells in G0, G1, and S-G2-M phases. For other stains, cells were fixed in eBioscience Intracellular Fixation buffer for 30 minutes followed washing twice in eBioscience Permeabilization Buffer and stained with the appropriate primary antibody (Table 2) in eBioscience FACS Staining buffer for 30-60 minutes. If a secondary antibody was used, cells were incubated with the appropriate secondary antibody (Table 2) for 30-60 minutes. The geometric mean fluorescence intensity (MFI) was quantified for TNNT2 and Kir2.1 antibodies. Data were acquired via a BD LSRII instrument and analyzed using FlowJo software.
A general note: Flow cytometry measures light scatter and fluorescence of single cells or particles in a stream.

Experiment [3] concerns iPSC-derived cardiomyocytes. Nature of the experiment: Mitochondrial DNA to nuclear DNA ratio, MitoTracker and MitoProbe JC-1 assays. As for the experimental part: The mitochondrial DNA to nuclear DNA ratio was quantified with qPCR. DNA was extracted from cardiomyocytes using the PureLink genomic DNA mini kit (Invitrogen). Primers for DNA to mitochondrial gene NADH dehydrogenase 1 (ND1) and nuclear gene lipoprotein lipase gene (LPL) were used (10).
Live iPSC-derived cardiomyocytes were stained using MitoTracker Green FM (Invitrogen) or the MitoProbe JC-1 assay kit (Invitrogen) according to the manufacturer's instructions. Cells were evaluated by flow cytometry and mean fluorescence intensity (MFI) of all live cells was quantified. For JC-1, the ratio of red to green MFI for vehicle versus Torin1-treated cells was quantified and normalized to control.

In experiment [4] the test system is iPSC-derived cardiomyocytes. Nature of the experiment: NanoString PanCancer Pathways Panel gene expression. The note with it: Torin1 200 nM 1 week, Gibco iPS-CMs, FIG. 7G. As for the experimental part:
Gene expression analysis was performed using NanoString technology which employs an optical counting method of fluorescently barcoded RNA according to the manufacturer's instructions. The nCounter PanCancer Pathways Panel was selected to provide a multiplex analysis of 770 genes from several growth and cell cycle-related pathways, including cell cycle, apoptosis, Wnt, transcriptional regulation, PI3K, and TGF-β. This panel was selected to provide a multiplex analysis of pathways associated with cell cycle regulation, metabolism, quiescence and senescence. Cardiomyocytes were differentiated in a 12-well plate then cardiomyocytes were treated with Torin1 (200 nM) or vehicle (DMSO) starting ˜2 days after onset of beating for 1 week (days 9-16 for this batch). After completion of Torin1 treatment, cells were switched back to maintenance media (RPMI+B27+insulin). Beginning on day 18 of differentiation, 10% fetal bovine serum (FBS) was added to half of the wells per treatment group and FBS treatment was continued for 4 days (until day 22 of differentiation). […] Data were analyzed using nSolver 4.0 software with the Advanced Analysis Module 2.0 with normalization to internal housekeeping genes including in the panel to perform unsupervised hierarchical clustering, differential expression analyses, and pathway scoring using the R statistical package.

Where [5] appears, read: Torin1 200 nM 7 days, BJRiPS-CMs.

Regarding `CCC(=O)N1CCN(c2ccc(-n3c(=O)ccc4cnc5ccc(-c6cnc7ccccc7c6)cc5c43)cc2C(F)(F)F)CC1` [Torin1], in experiment [1], the “percentage of Ki67+ cardiomyocytes” value is “significantly decreased” and the “percentage of pH3+ cardiomyocytes” value was “did not change”. Further, in experiment [2] (10% FBS 2 days after completion of Torin1, UCSD-CMs, FIG. 2I), the “Torin1-induced increase in TNNT2 MFI after 10% FBS” value is “reversed”. Also, the “TNNT2 MFI with shorter (5 days) or later (starting 10 days after initiation of beating) treatment” value in experiment [2] (FIGS. 10, 11) was “beneficial effects on TNNT2 MFI”. Besides, the “MFI of extracellular Kir2.1 by flow cytometry” value in experiment [2] (Torin1 7 days, BJRiPS, FIG. 4B) is listed as “significantly increased”. In experiment [2] (Torin1 7 days, Gibco iPS-CMs, FIG. 2C), the “TNNT2 MFI by flow cytometry” value is “dose-dependent increase”. Moreover, the “absolute numbers of cells per well” value in experiment [2] (Torin1 from day 9, 12 well plate, BJRiPS-CMs, FIG. 1C) is recorded as “non-significant trend toward decreased absolute numbers of cells per well”. Besides, the “purity of TNNT2+ cells” value in experiment [2] (non-significant trend, Gibco iPS-CMs, FIG. 1D) is on record as “increased purity of TNNT2+ cells”. Besides, the “TNNT2 protein by mean fluorescence intensity (flow cytometry)” value in experiment [2] (three cell lines (BJRiPS, GCaMP, Gibco), FIG. 18E) was “significant increase in protein expression of TNNT2”. For the same molecule, in experiment [3] (setting [5]), the “MFI of MitoTracker by flow cytometry” value is listed as “decreased MFI” and the “mitochondrial to nuclear DNA ratio” value was “decreased”. Moreover, in experiment [3] (Torin1 1 week, FIG. 3E), the “mitochondrial membrane polarization (MitoProbe JC-1 red:green ratio)” value is “significant increase in mitochondrial membrane polarization”. Besides, in experiment [4], the “expression of interleukin-8 (IL8) and SPP1 (osteopontin)” value is on record as “significant decrease in expression”.
